US8206983B2, “In vitro methods for the induction and maintenance of plant cell lines as single suspension cells with intact cell walls” (Dow AgroSciences, LLC., priority 2006, dated 2012)
Where two headings read alike, the source gives them in different places.

How the values were obtained:
[1] = tested on: BY2, NT1, Petite Havana (PH) and Xanthi (Xan) and Jimson Weed (JM) Suspension Cells; assay: Effects of tubulin inhibitors on growth and cell separation, all suspension types tested; type: cell-based
Excerpt: BY2 suspension-cultured cells were obtained from Japan tobacco and maintained in LSBY2 medium in a 7 day cycle. Jimsonweed suspension and Pettite Havana tobacco suspensions were initiated from callus initiated at DAS and Xanthi suspensions were procured as a sample from Professor Jack Widholm from UIUC, IL. JT-NT1 suspension cells, obtained from Washington University that are maintained in NT1B medium in 7 day cycle were used only for the pectin degradation enzyme study to separate the cells into single cells. The cells were cultured in shake flasks at 25-28° C. in dark on orbital shakers at 150 rpm. […] Stock concentrations of both the tubulin polymerization inhibitors used in this investigation were dissolved in DMSO to prepare a 0.5 M stock solution. The concentration tested for the pectinase and pectolyase enzymes were in the range of 0.0005% to 0.005%. […] NT-1 cells were originally developed from Nicotiana tabacum L. cv. bright yellow 2.
Cell expansion and separation were observed by light microscopy (with Nomarski and dark field optics). Spherical cells and single cells were counted by using a hemacytometer to determine the degree of cell expansion and separation, respectively. […] In order to determine the presence of the cell wall in this single cell cultures optical brightener was used. Calcafluor obtained from Sigma, which is a specific fluorescent dye for cellulose is used in this study, and the cellulose-Calcafluor complexing was observed by fluorescence microscopy (Zeiss Photomicroscope). […] Prior to use, the Calcafluor stain was centrifuged at 15,000 g for 2 min. to remove precipitates. A drop or two of the Calcafluor solution was added to the separated cells.

[2] = tested on: JTNT1 tobacco cell suspension cultures; assay: Single cell production, growth and viability of JTNT1 suspension with microtubule inhibitors in 24-well plates, glycerol medium
Excerpt: JTNT1 Tobacco Suspension Cultures. […] Furthermore, Suc stabilizes preformed microtubules, making an examination of the effects of MTIs on preformed microtubules unfeasible. In addition, sucrose increases solution viscosity substantially, and tubulin polymerization is altered at least in part by slowed dimer and polymer diffusion rates. Thus, it was important to have low or no sucrose in medium where the single cell production. Thus, a new JTNT1 line habituated in Glycerol was developed for this study.
Each of the 24 well contained 1 ml of JTNT1 suspension. The 24-well plates were kept on an Innova 4900 Multi Environmental Shaker with special clamps and harnesses to allow stacking of plates up to 6 plates high. The plates were rotated at a speed of 130 rpm and 25° C. in dark.
Single Cell Production. Each compound was dissolved in dimethyl sulfoxide (DMSO) to provide 0.5 Molar stock solutions. One ml of JTNT1 suspension (1 ml PCV/20 ml tobacco media) was added to each well of the 24 well plates. To each well an individual chemical was added to achieve the desired concentrations (at 1 μM, 3 μM, and 10 μM). The cultures were allowed to grow for 7 days on the Innova Shaker. Each day turbidity measurements was taken on each well using a SpectraMax M2^e by Molecular devices (set at 600 absorbance, with 5 readings taken per well). On day 7, cells were observed using the Leica 5000 inverted confocal microscope for formation of single cells and cell viability.

[3] = tested on: Carrot suspension cultures; assay: Single cell production from carrot suspension cultures; set-up: colony growth after plating single cells on M-medium: dose or concentration left out as unconfirmed
Description: Carrot callus cultures have been initiated from the in vitro maintained Daucus carota L. ssp. sativus cv Sativa plants. Isolated leaf petiole explants were cultured on semi solid medium (Mashayekhi-Nezamabadi, 2000). Suspension cultures were initiated from the callus by transferring 50 mg of friable callus in 1.5 ml of LSBY2 medium (Appendix I) in 24 micro well plate. The fastest growing suspensions were then transferred to flasks with 1 ml suspension in 35 ml LSBY2 liquid medium. The cultures were maintained in diffused light in a 7 day sub culture cycle.
A 1.5-ml diluted single cell cultures were plated on M-medium (Appendix II) in 15×100 Petri-plates and spread out using the loop. Untreated carrot suspension aggregates were also diluted to the same density and plated similarly to compare the growth responses between these cultures.
LSBY2 medium consists of Murashige and Skoog macro and micro-salts (Murashige and Skoog 1962) supplemented with 30 g sucrose (w/v), 100 mg/l myoinositol, 200 mg/l KH2PO4, 1 mg/l thiamine and […] 2,4-dichlorophenoxyacetic acid. The medium is adjusted pH 5.8 before autoclaving at 120° C. Suspension volume at the 7th day of culture, at stationary phase was used to initiate cultures. A 1-ml volume of carrot suspension inoculums is transferred into 50 ml LSBY2 medium and then the cultures were placed on shakers at 150 rpm in the dark at 28° C. The MTI compounds used were added along with the fresh medium at the culture initiation cycle.
A regenerable carrot cryopreserved line (D2-40-018) was thawed and cultured in Linsmeier-Skoog (LS) medium (Nagata, T., Nemoto, Y., and Hasezawa, S. (1992) Int. Rev. Cyto 132, 1-30). Medium salts were purchased from PhytoTechnology Laboratories, Catalog #L689. An actively growing suspension line was established within a week, and the maintenance line was sub-cultured by transferring 2 ml PCV to 58 ml of LS BY2 suspension medium at 28° C. on an orbital shaker (Innova-3300) at 125 rpm under diffused light on a 7 day culture cycle.

[4] = tested on: NT1 tobacco cell growth; assay: Effects of MTI on NT1 tobacco cell growth and single cell production in glycerol medium; type: cell-based
Description: The effects of Microtubule inhibitors (MTI) on tobacco cell growth in suspension culture were examined. […] Both the control and MTI-containing flasks contained a final concentration of 0.5-0.1% (v/v) DMSO. The growth of these chemicals was evaluated in EP12 medium for BY2 cells and NT1B medium for BTI-NT1 cells were the carbon source is substituted with 3% glycerol. The response of these cells was compared with the same medium composition but with 3% sucrose as the Carbon source.

Q: What does the source list for `CCOC(=O)COc1nn(-c2ccccc2)c(-c2ccccc2)c1Cl` [DAS-PMTI-1]?
A: potency relative to colchicine in affecting the growth of the cultures [1]: 100-1000 ×; cell growth ([1]; 0.5 mM): affected very significantly; cell death ([1]; 0.5 mM, after 7 days of treatment): considerable cell death; cell segregation ([1]; all the cell suspension types tested): partial segregation of cells with general spherical shape; biomass versus respective controls ([2]; 1 uM, sucrose or glycerol medium): did not reduce the biomass of the cells significantly; character of single cell production [3]: assorted cell shapes; concentrations causing inhibition of mitosis, and cell death [4]: over 100 nM; threshold of tobacco cell growth inhibition [4]: ~50 nM; micro-nuclei in single cells (microscopic observations) ([4]; 25 nM): did not show the presence of micro-nuclei; fresh weights versus controls during the stationary phase ([4]; 25 nM (sentence ends with 50 nM), 3% glycerol): slightly greater; growth rate of the cells ([4]; 25 nM, over a period of 10 days): not lowering the growth rate; effect on growth ([4]; 0.5-1.0 mM): complete inhibition and cell death; time to complete inhibition and cell death ([4]; 0.5-1.0 mM, from culture initiation): ≤ 3 days; concentration effective for the production of single cells ([4]; glycerol as total carbon source, NT1 cells): 0.005 to 0.025 µM

Q: For `COc1cc2c(c(OC)c1OC)-c1ccc(OC)c(=O)cc1[C@@H](NC(C)=O)CC2` [Colchicine], which “cell expansion and separation” value ([1]; 0.5 mM colchicine, all the other cell suspensions tested) is on record?
A: The value was “partially occurred”.

Q: What about the “concentration necessary to produce single cells, lower end of range” value [2] of the same compound?
A: Its value is at least 50 µM.

Q: And the “concentration necessary to produce single cells, upper end of range” value [2]?
A: The value was at most 2 mM.

Q: What about the “increase in diameter of single cells” value ([2]; NT1B medium with 3% glycerol) of the same compound?
A: Its value is 5 fold.

Q: What about the “character of single cell production” value [3] of the same compound?
A: Its value is “homogenous production of single cells”.

Q: What about the “time of single cell production” value ([3]; 1 mM) of the same compound?
A: Its value is 3 to 7 days.

Q: What about the “nuclear ploidy of single cells” value ([3]; 1 mM, 14-21 days of continuous treatments) of the same compound?
A: The value was “nuclear polyploidy”.

Q: What about the “viability by fluorescein diacetate stain” value ([3]; 1 mM, 4 days and 11 days) of the same compound?
A: The value was “very active and viable”.

Q: What about the “frequency of nuclear polyploidy” value ([3]; 1 mM, cultures up to 14 days) of the same compound?
A: Its value is under 1%.

Q: What about the “nuclei of super single cells” value ([3]; 1 mM, up to 28 days) of the same compound?
A: Its value is “extensive lobed nuclei”.

Q: What about the “colony growth after plating single cells on M-medium” value ([3]; 7 days in colchicine, 4 weeks growth in the dark) of the same compound?
A: The value was “several discrete colonies”.

Q: And the “concentration effective for the production of single cells” value [4]?
A: The value was 250 to 500 µM.
